# US9242984B2, “Pyrazolyl derivatives as Syk inhibitors” (Merck Sharp & Dohme Corp., priority 2012, dated 2016)
# Where two headings read alike, the source gives them in different places.
# Molecular target: T1, recombinant human Syk (GST-hSyk fusion protein) (Homo sapiens, UniProt P43405)
# T1 construct: purchased Carna Biosciences 08-176
# Assay: Homogeneous Time-Resolved Fluorescence (HTRF) assay for the recombinant human Syk enzyme
# Format: biochemical
# Details: 10-dose titration, 25 μM ATP
# Description: Syk inhibition may be determined using the following assay protocol:
# Homogeneous Time-Resolved Fluorescence (HTRF) Assay for the Recombinant Human Syk Enzyme:
# A recombinant GST-hSyk fusion protein was used to measure potency of compounds to inhibit human Syk activity. The recombinant human GST-Syk (Carna Biosciences #08-176) (5 pM final concentration) was incubated with various concentrations of the inhibitor diluted in DMSO (0.1% final concentration) for 10 minutes at room temperature in 15 mM Tris-HCl (pH 7.5), 0.01% tween 20, 2 mM DTT in 384 well plate format. To initiate the reaction the biotinylated substrate peptide (250 nM final concentration) that contains the phosphorylation site for Syk was added with magnesium (5 mM final concentration) and ATP (25 μM final concentration). Final volume of the reaction was 10 μL. Phosphorylation of the peptide was allowed to proceed for 45 minutes at room temperature. To quench the reaction and detect the phosphorylated product, 2 nM of a Europium-anti-phosphotyrosine antibody (Perkin Elmer #AD0161) and 70 nM SA-APC (Perkin-Elmer #CR130-100) were added together in 15 mM Tris pH 7.5, 40 mM EDTA, 0.01% tween 20. Final volume of the quenching solution was 10 μL. The resulting HTRF signal was measured after 30 minutes on an EnVision (Perkin-Elmer) reader using a time-resolved fluorescence protocol. IC50 was determined following 10-dose titration (10 μM to 0.508 nM) and four parameter logistic curve fitting using the Merck Assay Data Analyzer. The rhSyk activity (IC50) is expressed as +++(100 nM or less), ++(between 100 and 1000 nM), +(between 1 and 10 μM).
# [1] = IC50 class, read-out: rhSYK Activity
Compound,IC50 [1] [nM],IC50 (read-out: rhSYK IC50) [nM]
1-[4-(3-methyl-5-{[4-(trifluoro-ethyl)pyrimidin-2-yl]amino}-phenyl)-1H-pyrazol-1-yl]-3-morpholin-4-ylpropan-2-ol [Example 5.10],≤ 100,
3-[4-(4-methyl-6-{[4-(trifluoromethyl)pyridin-2-yl]amino}pyrimidin-2-yl)-1H-pyrazol-1-yl]propanoic acid [Example 1.40],≤ 100,
4-{1-[4-(4-methyl-6-{[4-(trifluoromethyl)pyridin-2-yl]amino}pyridin-2-yl)-1H-pyrazol-1-yl]ethyl}pyrrolidin-2-one [Example 1.32],≤ 100,
4-{[4-(4-methyl-6-{[4-(trifluoromethyl)-pyridin-2-yl]amino}-pyridin-2-yl)-1H-pyrazol-1-yl]methyl}-pyrrolidin-2-one [Example 1.39],≤ 100,
4-{[4-(4-methyl-6-{[4-(trifluoromethyl)pyridin-2-yl]amino}pyridin-2-yl)-1H-pyrazol-1-yl]-methyl}pyrrolidin-2-one [Example 1.38],≤ 100,
4-{[4-(6-{[4-(difluoromethyl)pyridin-2-yl]amino}-4-methylpyridin-2-yl)-1H-pyrazol-1-yl)methyl}pyrrolidin-2-one [Example 1.37],≤ 100,
4-{[4-(6-{[4-(difluoromethyl)pyridin-2-yl]amino}-4-methylpyridin-2-yl)-1H-pyrazol-1-yl]methyl}pyrrolidin-2-one [Example 1.35],≤ 100,
6-methyl-2-(1H-pyrazol-4-yl)-N-[4-(trifluoro-methyl)pyridin-2-yl]pyrimidin-4-amine [Example 1.41],≤ 100,
"6-methyl-2-pyrazolo-[1,5-a]pyridin-3-yl-N-[4-(trifluoromethyl)-pyridin-2-yl]pyrimidin-4-amine [Example 1.42]",≤ 100,

# Next, values leading:
IC50 [1] [nM],IC50 (read-out: rhSYK IC50) [nM],Compound
≤ 100,,"5-{[4-(3-{[4-(1,1-difluoromethyl)pyrimidin-2-yl]amino}-5-methylphenyl)-1H-pyrazol-1-yl]methyl}-4-methyl-1,3-oxazolidin-2-one [Example 23.11]"
≤ 100,,"Cc1cc(Nc2nccc(C(F)(F)F)n2)cc(-c2cnn(CC(O)C(F)(F)F)c2)c1 (racemic) [Example 3.43, 1,1,1-trifluoro-3-[4-(3-methyl-5-{[4-(trifluoromethyl)pyrimidin-2-yl]amino}phenyl)-1H-pyrazol-1-yl]propan-2-ol]"
≤ 100,58.5,"Cc1cc(Nc2nccc(C(F)(F)F)n2)cc(-c2cnn(CC(O)c3ccccc3)c2)c1 (racemic) [Example 5.1, 2-(4-(3-methyl-5-((4-(trifluoromethyl)pyrimidin-2-yl)amino)phenyl)-1H-pyrazol-1-yl)-1-phenylethanol]"
≤ 100,,"COC(=O)C(C)(O)Cn1cc(-c2cc(C)cc(Nc3nccc(C(F)(F)F)n3)c2)cn1 (racemic) [Example 5.4, methyl 2-hydroxy-2-methyl-3-[4-(3-methyl-5-{[4-(trifluoro-methyl)pyrimidin-2-yl]amino}phenyl)-1H-pyrazol-1-yl]propanoate]"
≤ 100,,"Cc1cc(Nc2nccc(C(F)(F)F)n2)cc(-c2cnn(CC(C)(O)C(=O)O)c2)c1 (racemic) [Example 5.6, 2-hydroxy-2-methyl-3-[4-(3-methyl-5-{[4-(trifluoro-methyl)pyrimidin-2-yl]amino}-phenyl)-1H-pyrazol-1-yl]propanoic acid]"
≤ 100,,"CCC(O)Cn1cc(-c2cc(C)cc(Nc3nccc(C(F)(F)F)n3)c2)cn1 (racemic) [Example 5.9, 1-[4-(3-methyl-5-{[4-(trifluoro-methyl)pyrimidin-2-yl]amino}-phenyl)-1H-pyrazol-1-yl]butan-2-ol]"
100 to 1000,,"Cc1cc(-c2cnn(CC(O)CF)c2)cc(N(CC(O)CF)c2nccc(C(F)(F)F)n2)c1 (racemic) [Example 5.13, 1-fluoro-3-({3-[1-(3-fluoro-2-hydroxy-propyl)-1H-pyrazol-4-yl]-5-methyl-phenyl}-[4-(trifluoromethyl)-pyrimidin-2-yl]-amino)propan-2-ol]"
